According to publication PMC6943742, “Peptide/Peptoid Hybrid Oligomers: The Influence of Hydrophobicity and Relative Side-Chain Length on Antibacterial Activity and Cell Selectivity” (Molecules, 2019):
Values after ≈ are worked out from the molar mass of the structure shown. Read-outs that look alike come from different tables or passages of the source. Non-standard residues stand in square brackets, D forms with d. Residues, ends and D or L forms follow the SMILES beside them. N(5-aminopentyl)Gly = NCCCCCNCC(=O)O; Gly(NCH2CH2Ph) = O=C(O)CNCCc1ccccc1; Gly(N-2-aminoethyl) = NCCNCC(=O)O; hPhe = N[C@@H](CCc1ccccc1)C(=O)O; hLys = NCCCCC[C@H](N)C(=O)O; Nphe = O=C(O)CNCc1ccccc1; Orn = NCCC[C@H](N)C(=O)O; Dab = NCC[C@H](N)C(=O)O

Columns and labels:
[1] = Relative hydrophobicity by RP-HPLC (% MeCN at peak elution); assay type: physicochemical; settings: RP-HPLC gradient 0 → 60% B during 10 min; % MeCN at peak elution calculated from retention time
Experimental: The relative hydrophobicity of each peptidomimetic was measured by reverse-phase high-performance liquid chromatography (RP-HPLC). Typically, the RP-HPLC retention time (or percentage acetonitrile at peak elution) constitutes the preferred measure that allows for comparison of relative hydrophobicity, while log P values of polycationic peptides or peptidomimetics normally are considered unsuitable due to the extreme hydrophilic nature of such compounds [11, 45, 57, 58, 59, 60]. […] For both subgroups III (with cationic amino acid residues and the peptoid analogue of Phe, NPhe, i.e., 9–12) and IV (with cationic amino acid residues and the peptoid analogue of hPhe, NhPhe, i.e., 13–16) only minor differences in hydrophobicity were seen. These observations infer that, when the cationic residues are of a peptoid nature, the side-chain length of these has a […] influence on the hydrophobicity. […] Thus, introduction of additional six methylene groups results, as expected, in increased hydrophobicity.
Starting materials and solvents were purchased from commercial suppliers (Iris Biotech, Markredwitz, Germany; Fluorochem, Hadfield, United Kingdom; and Merck, Darmstadt, Germany) and used without further purification. Water used for analytical and preparative high-performance liquid chromatography (HPLC) was filtered through a 0.22-μm Millipore membrane filter. Purity and retention time of each peptidomimetic were determined by analytical UHPLC by using a Phenomenex Luna C18(2) HST column (100 mm × 3 mm; particle size: 2.5 μm; pore size: 100 Å) on a Shimadzu Prominence and Shimadzu Nexera system using an aqueous acetonitrile (MeCN) gradient with 0.1% trifluoroacetic acid (TFA) added (eluent A: 5:95 MeCN–H2O + 0.1% TFA, eluent B: 95:5 MeCN–H2O + 0.1% TFA); a flow rate of 0.5 mL/min was used. For elution of peptidomimetics, a linear gradient of 0% to 60% B during 10 min was used with UV detection at λ = 220 nm. […] For each peptidomimetic, the percentage of MeCN at peak elution was calculated from the retention time by using the following formula:(1) %MeCN = 0.95 (0.6Rt/10 min.) + 0.05 (1−0.6Rt/10 min.).

[2] = system: A. baumannii ATCC 19606; assay type: cell-based
Experimental: (§1) MIC values were evaluated by using the modified Hancock lab protocol in non-binding polystyrene microtitre plates, with bacterial suspensions of ∼2 × 10^5 CFU/mL in Mueller-Hinton broth (Difco, Sparks MD, USA), with Mg^2+ and Ca^2+ concentrations of 4 mg/L each. The compounds were dissolved in H2O and diluted in 0.01% acetic acid, 0.2% BSA (final concentration). Aliquots of 11 µL of 10 × test compounds were then transferred to the appropriate wells with bacterial suspensions. For preparation and transfer of the solutions of the compounds, low-binding sterile tubes and tips (Axygen, Union City CA, USA) were used. After 20 h incubation of covered plates at 35 °C (±2 °C) with circular shaking at 220 rpm, the MICs were read. The antibacterial activity of peptidomimetics was tested against E. coli ATCC 25922, K. pneumoniae ATCC 13883, P. aeruginosa ATCC 27853, P. aeruginosa PAO1, A. baumannii ATCC 19606, S. aureus ATCC 29213, and E. faecalis ATCC 29212.

[3] = system: E. coli ATCC 25922; assay type: cell-based
Experimental: as §1

[4] = system: E. faecalis ATCC 29212; assay type: cell-based
Experimental: as §1

[5] = system: K. pneumoniae ATCC 13883; assay type: cell-based
Experimental: as §1

[6] = system: P. aeruginosa ATCC 27853; assay type: cell-based
Experimental: as §1

[7] = system: P. aeruginosa PAO1; assay type: cell-based
Experimental: as §1

[8] = system: S. aureus ATCC 29213; assay type: cell-based
Experimental: as §1

[9] = system: HepG2 cell line ATCC HB-8065; assay: in vitro; assay type: cell-based; settings: 48 h
Experimental: Side effects affecting cell viability were estimated on the HepG2 cell line ATCC HB-8065. In brief, HepG2 cells were seeded in flat-bottomed 96-well plates at a concentration of 5000 cells per well. At 80−90% confluency, the cells were incubated for 24 h in a humidified incubator (5% CO2, 37 °C). The medium was removed, and the cells were incubated for 48 h in a humidified incubator (5% CO2, 37 °C) with compounds in two-fold serial dilutions. An MTT assay was then performed as previously described. In brief, after incubation with the test compounds, the culture medium was removed and fresh medium with 0.2 mg/mL MTT was added in each well of the plate. After incubation (3 h, 37 °C, 5% CO2), the medium with MTT was removed, and 200 μL dimethyl sulfoxide were added at once to each sample. Absorbance of MTT was measured using spectrophotometer TECAN Infinite M1000 at 540 nm. The relative viability was calculated by using the formula: ODtreated cells × 100/ODcontrol cells. The IC50 values are calculated by using the program Graph Pad Prism® 5.0. For all compounds, the test range was 10–1280 μg/mL.

[10] = in vitro; assay type: cell-based; settings: human, Hemolytic Activity (percentage hemolysis)
Experimental: The lysis of human red blood cells was measured as previously described, with modifications. In brief, freshly drawn human red blood cells (hRBCs) were washed three times with PBS buffer and centrifuged two times for 5 min at 2500 rpm. A two-fold serial dilution of peptidomimetics in PBS buffer was added to each well in a sterile polypropylene V-bottom 96-well plate to the total volume of 75 μL. A 0.5% v/v hRBC suspension (75 μL in PBS buffer) was added to each well to reach a final volume of 150 μL in each well. The plate was incubated (37 °C) for 60 min, and then the cells were subsequently pelleted by centrifugation at 1000 rpm for 5 min. The supernatants (50 μL) were transferred to clear, flat-bottomed plastic 96-well plates. The concentration of hemoglobin was detected by measuring the OD at 405 nm. The OD of cells incubated with 0.1% SDS defined 100% hemolysis, while the OD of cells incubated with PBS buffer defined 0% hemolysis. The concentrations tested were 200, 400, and 800 μg/mL (only average values for the highest concentration are stated in Table 2).

Compound	Hydrophobicity (% MeCN at elution) [1]	MIC ([2]; ATCC 19606, 20 h)	MIC ([3]; ATCC 25922, 20 h)	MIC ([4]; ATCC 29212, 20 h)	Activity against E. faecalis (in words) ([4]; E. faecalis)	MIC ([5]; ATCC 13883, 20 h)	MIC ([6]; ATCC 27853, 20 h)	MIC ([7]; PAO1, 20 h)	MIC ([8]; ATCC 29213, 20 h)	Activity against S. aureus (in words) ([8]; S. aureus)	IC50 for inhibiting growth of HepG2 cells [9]	hemolysis at 60 min, 800 µg/mL [10]	MIC ([2]; A. baumannii ATCC 19606, Gram-negative, 20 h, Mueller-Hinton broth)	MIC ([3]; E. coli ATCC 25922, Gram-negative, 20 h, Mueller-Hinton broth)	MIC ([4]; E. faecalis ATCC 29212, Gram-positive, 20 h, Mueller-Hinton broth)	MIC ([5]; K. pneumoniae ATCC 13883, Gram-negative, 20 h, Mueller-Hinton broth)	MIC ([6]; P. aeruginosa ATCC 27853, Gram-negative, 20 h, Mueller-Hinton broth)	MIC ([7]; P. aeruginosa PAO1, Gram-negative, 20 h, Mueller-Hinton broth)	MIC ([8]; S. aureus ATCC 29213, Gram-positive, 20 h, Mueller-Hinton broth)
NCCNCC(=O)N[C@@H](CCc1ccccc1)C(=O)N(CCN)CC(=O)N[C@@H](CCc1ccccc1)C(=O)N(CCN)CC(=O)N[C@@H](CCc1ccccc1)C(=O)N(CCN)CC(=O)N[C@@H](CCc1ccccc1)C(=O)N(CCN)CC(=O)N[C@@H](CCc1ccccc1)C(=O)N(CCN)CC(=O)N[C@@H](CCc1ccccc1)C(N)=O [Peptidomimetic 5] (H-[Gly(N-2-aminoethyl)][hPhe][Gly(N-2-aminoethyl)][hPhe][Gly(N-2-aminoethyl)][hPhe][Gly(N-2-aminoethyl)][hPhe][Gly(N-2-aminoethyl)][hPhe][Gly(N-2-aminoethyl)][hPhe]-NH2)	43.5%	>64 µg/mL	4 µg/mL (≈ 2.52 µM)	32 µg/mL (≈ 20.2 µM)	weak activity	64 µg/mL (≈ 40.4 µM)	4 µg/mL (≈ 2.52 µM)	16 µg/mL (≈ 10.1 µM)	8 µg/mL (≈ 5.05 µM)	moderate activity	307 µg/mL	–	–	–	–	–	–	–	–
NCCCCCNCC(=O)N[C@@H](CCc1ccccc1)C(=O)N(CCCCCN)CC(=O)N[C@@H](CCc1ccccc1)C(=O)N(CCCCCN)CC(=O)N[C@@H](CCc1ccccc1)C(=O)N(CCCCCN)CC(=O)N[C@@H](CCc1ccccc1)C(=O)N(CCCCCN)CC(=O)N[C@@H](CCc1ccccc1)C(=O)N(CCCCCN)CC(=O)N[C@@H](CCc1ccccc1)C(N)=O [Peptidomimetic 8] (H-[N(5-aminopentyl)Gly][hPhe][N(5-aminopentyl)Gly][hPhe][N(5-aminopentyl)Gly][hPhe][N(5-aminopentyl)Gly][hPhe][N(5-aminopentyl)Gly][hPhe][N(5-aminopentyl)Gly][hPhe]-NH2)	40.9%	–	2 µg/mL (≈ 1.09 µM)	>64 µg/mL	–	64 µg/mL (≈ 34.8 µM)	64 µg/mL (≈ 34.8 µM)	64 µg/mL (≈ 34.8 µM)	>64 µg/mL	–	266 µg/mL	9%	–	–	–	–	–	–	–
NCC[C@H](NC(=O)CN(Cc1ccccc1)C(=O)[C@H](CCN)NC(=O)CN(Cc1ccccc1)C(=O)[C@H](CCN)NC(=O)CN(Cc1ccccc1)C(=O)[C@H](CCN)NC(=O)CN(Cc1ccccc1)C(=O)[C@H](CCN)NC(=O)CN(Cc1ccccc1)C(=O)[C@@H](N)CCN)C(=O)N(CC(N)=O)Cc1ccccc1 [Peptidomimetic 9] (H-[Dab][Nphe][Dab][Nphe][Dab][Nphe][Dab][Nphe][Dab][Nphe][Dab][Nphe]-NH2)	–	–	2 to 4 µg/mL	>64 µg/mL	–	32 to 64 µg/mL	1 µg/mL (≈ 0.666 µM)	2 µg/mL (≈ 1.33 µM)	>64 µg/mL	–	326 µg/mL	79%	–	–	–	–	–	–	–
NCCC[C@H](NC(=O)CN(Cc1ccccc1)C(=O)[C@H](CCCN)NC(=O)CN(Cc1ccccc1)C(=O)[C@H](CCCN)NC(=O)CN(Cc1ccccc1)C(=O)[C@H](CCCN)NC(=O)CN(Cc1ccccc1)C(=O)[C@H](CCCN)NC(=O)CN(Cc1ccccc1)C(=O)[C@@H](N)CCCN)C(=O)N(CC(N)=O)Cc1ccccc1 [Peptidomimetic 10] (H-[Orn][Nphe][Orn][Nphe][Orn][Nphe][Orn][Nphe][Orn][Nphe][Orn][Nphe]-NH2)	–	–	4 to 8 µg/mL	>64 µg/mL	–	>64 µg/mL	2 to 4 µg/mL	4 to 8 µg/mL	>64 µg/mL	–	923 µg/mL	10%	–	–	–	–	–	–	–
NCC[C@H](NC(=O)CN(CCc1ccccc1)C(=O)[C@H](CCN)NC(=O)CN(CCc1ccccc1)C(=O)[C@H](CCN)NC(=O)CN(CCc1ccccc1)C(=O)[C@H](CCN)NC(=O)CN(CCc1ccccc1)C(=O)[C@H](CCN)NC(=O)CN(CCc1ccccc1)C(=O)[C@@H](N)CCN)C(=O)N(CCc1ccccc1)CC(N)=O [Peptidomimetic 13] (H-[Dab][Gly(NCH2CH2Ph)][Dab][Gly(NCH2CH2Ph)][Dab][Gly(NCH2CH2Ph)][Dab][Gly(NCH2CH2Ph)][Dab][Gly(NCH2CH2Ph)][Dab][Gly(NCH2CH2Ph)]-NH2)	–	>64 µg/mL	4 µg/mL (≈ 2.52 µM)	>64 µg/mL	–	32 µg/mL (≈ 20.2 µM)	2 µg/mL (≈ 1.26 µM)	2 to 4 µg/mL	>64 µg/mL	–	261 µg/mL	53%	–	–	–	–	–	–	–
NCCCCC[C@H](NC(=O)CN(CCc1ccccc1)C(=O)[C@H](CCCCCN)NC(=O)CN(CCc1ccccc1)C(=O)[C@H](CCCCCN)NC(=O)CN(CCc1ccccc1)C(=O)[C@H](CCCCCN)NC(=O)CN(CCc1ccccc1)C(=O)[C@H](CCCCCN)NC(=O)CN(CCc1ccccc1)C(=O)[C@@H](N)CCCCCN)C(=O)N(CCc1ccccc1)CC(N)=O [Peptidomimetic 16] (H-[hLys][Gly(NCH2CH2Ph)][hLys][Gly(NCH2CH2Ph)][hLys][Gly(NCH2CH2Ph)][hLys][Gly(NCH2CH2Ph)][hLys][Gly(NCH2CH2Ph)][hLys][Gly(NCH2CH2Ph)]-NH2)	41.1%	–	4 µg/mL (≈ 2.18 µM)	>64 µg/mL	–	>64 µg/mL	16 µg/mL (≈ 8.71 µM)	32 µg/mL (≈ 17.4 µM)	>64 µg/mL	–	410 µg/mL	9%	–	–	–	–	–	–	–
Colistin [reference compound]	–	–	–	–	–	–	–	–	–	–	–	–	0.5 µg/mL	0.125 to 0.25 µg/mL	>64 µg/mL	0.25 µg/mL	0.125 to 0.25 µg/mL	0.5 µg/mL	>64 µg/mL
